{
  "source": "patent US11203591B2",
  "about": "“Substituted 6-azabenzimidazole compounds” (Gilead Sciences, Inc., priority 2018, dated 2021)",
  "data": [
    {"target": "human HPK1 (MAP4K1) (Homo sapiens (Human), UniProt Q92918)", "sequence (Q92918 17-274)": "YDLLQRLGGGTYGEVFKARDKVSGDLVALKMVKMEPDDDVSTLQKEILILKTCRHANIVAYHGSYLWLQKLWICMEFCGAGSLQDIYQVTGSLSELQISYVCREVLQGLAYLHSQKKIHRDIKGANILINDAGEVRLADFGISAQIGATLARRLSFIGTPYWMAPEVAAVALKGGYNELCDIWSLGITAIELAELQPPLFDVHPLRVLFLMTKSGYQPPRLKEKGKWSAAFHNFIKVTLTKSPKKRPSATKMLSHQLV", "test": "HPK1 IC50 Assay (TR-FRET peptide phosphorylation)", "format": "biochemical", "conditions": "recombinant HPK1 kinase domain 0.15 nM, 10 μM ATP, 1 μM STK S1 peptide; geometric mean of multiple experiments", "procedure,_shortened": "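Readout: TR-FRET (665 nm/620 nm) after EDTA stop, detecting STK S1 peptide (1 μM) phosphorylation by 0.15 nM HPK1 kinase domain, ATP-pre-activated, at 10 μM ATP over 3 h, 25° C, pH 7.0. IC50s from four-parameter variable-slope fits, normalized to staurosporine and DMSO, averaged geometrically.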", "units": {"IC50": "nM"}, "values": [
      {"smiles": "Cc1c(C(=O)NC2(C(F)F)CC2)cc(Nc2nc(-c3cnc4c(c3)N([C@H]3C[C@@](C)(N5CCC[C@@H](F)C5)C3)C(=O)C4(C)C)cc3ncn(C(C)C)c23)c(F)c1F", "note": "[Example 196, N-(1-(Difluoromethyl)cyclopropyl)-3,4-difluoro-5-((6-(1-((1S,3s)-3-((R)-3-fluoropiperidin-1-yl)-3-methylcyclobutyl)-3,3-dimethyl-2-oxo-2,3-dihydro-1H-pyrrolo[3,2-b]pyridin-6-yl)-3-isopropyl-3H-imidazo[4,5-c]pyridin-4-yl)amino)-2-methylbenzamide]", "IC50": 0.1},
      {"smiles": "Cc1c(C(=O)NC2(C(F)F)CC2)cc(Nc2nc(-c3cnc4c(c3)N([C@H]3C[C@@](C)(N5CCC(F)CC5)C3)C(=O)C4(C)C)cc3ncn(C(C)C)c23)c(F)c1F", "note": "[Example 197, N-(1-(Difluoromethyl)cyclopropyl)-3,4-difluoro-5-((6-(1-((1s,3s)-3-(4-fluoropiperidin-1-yl)-3-methylcyclobutyl)-3,3-dimethyl-2-oxo-2,3-dihydro-1H-pyrrolo[3,2-b]pyridin-6-yl)-3-isopropyl-3H-imidazo[4,5-c]pyridin-4-yl)amino)-2-methylbenzamide]", "IC50": 0.1},
      {"smiles": "CC(C)n1cnc2cc(-c3cnc4c(c3)N([C@H]3C[C@@](C)(N5CCCOCC5)C3)C(=O)C4(C)C)nc(Nc3cc(C(=O)NC4(C(F)F)CC4)c(Cl)c(F)c3F)c21", "note": "[Example 198, 2-Chloro-N-(1-(difluoromethyl)cyclopropyl)-5-((6-(3,3-dimethyl-1-((1s,3s)-3-methyl-3-(1,4-oxazepan-4-yl)cyclobutyl)-2-oxo-2,3-dihydro-1H-pyrrolo[3,2-b]pyridin-6-yl)-3-isopropyl-3H-imidazo[4,5-c]pyridin-4-yl)amino)-3,4-difluorobenzamide]", "IC50": 0.01},
      {"smiles": "CC(C)n1cnc2cc(-c3cnc4c(c3)N([C@H]3C[C@@](C)(N5CCOCC5)C3)C(=O)C4(C)C)nc(Nc3cc(C(=O)NC4(C(F)F)CC4)c(Cl)c(F)c3F)c21", "note": "[Example 199, 2-Chloro-N-(1-(difluoromethyl)cyclopropyl)-5-((6-(3,3-dimethyl-1-((1s,3s)-3-methyl-3-morpholinocyclobutyl)-2-oxo-2,3-dihydro-1H-pyrrolo[3,2-b]pyridin-6-yl)-3-isopropyl-3H-imidazo[4,5-c]pyridin-4-yl)amino)-3,4-difluorobenzamide]", "IC50": 0.1},
      {"smiles": "CC(C)n1cnc2cc(-c3cnc4c(c3)N([C@H]3C[C@@](C)(N5CC[C@@H](F)C5)C3)C(=O)C4(C)C)nc(Nc3cc(C(=O)NC4(C(F)F)CC4)c(Cl)c(F)c3F)c21", "note": "[Example 200, 2-Chloro-N-(1-(difluoromethyl)cyclopropyl)-3,4-difluoro-5-((6-(1-((1S,3s)-3-((R)-3-fluoropyrrolidin-1-yl)-3-methylcyclobutyl)-3,3-dimethyl-2-oxo-2,3-dihydro-1H-pyrrolo[3,2-b]pyridin-6-yl)-3-isopropyl-3H-imidazo[4,5-c]pyridin-4-yl)amino)benzamide]", "IC50": 0.1},
      {"smiles": "CC(C)n1cnc2cc(-c3cnc4c(c3)N([C@H]3C[C@@](C)(N5CCC[C@@H](F)C5)C3)C(=O)C4(C)C)nc(Nc3cc(C(=O)NC4(C(F)F)CC4)c(Cl)c(F)c3F)c21", "note": "[Example 201, 2-Chloro-N-(1-(difluoromethyl)cyclopropyl)-3,4-difluoro-5-((6-(1-((1S,3s)-3-((R)-3-fluoropiperidin-1-yl)-3-methylcyclobutyl)-3,3-dimethyl-2-oxo-2,3-dihydro-1H-pyrrolo[3,2-b]pyridin-6-yl)-3-isopropyl-3H-imidazo[4,5-c]pyridin-4-yl)amino)benzamide]", "IC50": 0.2},
      {"smiles": "CC(C)n1cnc2cc(-c3cnc4c(c3)N([C@H]3C[C@@](C)(N5CCCCC5)C3)C(=O)C4(C)C)nc(Nc3cc(C(=O)NC4(C(F)F)CC4)c(Cl)cc3F)c21", "note": "[Example 202, 2-Chloro-N-(1-(difluoromethyl)cyclopropyl)-5-((6-(3,3-dimethyl-1-((1s,3s)-3-methyl-3-(piperidin-1-yl)cyclobutyl)-2-oxo-2,3-dihydro-1H-pyrrolo[3,2-b]pyridin-6-yl)-3-isopropyl-3H-imidazo[4,5-c]pyridin-4-yl)amino)-4-fluorobenzamide]", "IC50": 0.1},
      {"smiles": "CC(C)n1cnc2cc(-c3cnc4c(c3)N([C@H]3C[C@@](C)(N5CCCC6(CC6)C5)C3)C(=O)C4(C)C)nc(Nc3cc(C(=O)NC4(C(F)F)CC4)c(Cl)c(F)c3F)c21", "note": "[Example 203, 2-Chloro-N-(1-(difluoromethyl)cyclopropyl)-5-((6-(3,3-dimethyl-1-((1s,3s)-3-methyl-3-(5-azaspiro[2.5]octan-5-yl)cyclobutyl)-2-oxo-2,3-dihydro-1H-pyrrolo[3,2-b]pyridin-6-yl)-3-isopropyl-3H-imidazo[4,5-c]pyridin-4-yl)amino)-3,4-difluorobenzamide]", "IC50": 0.07},
      {"smiles": "CC(C)n1cnc2cc(-c3cnc4c(c3)N([C@H]3C[C@@](C)(N5CCCCC5)C3)C(=O)C4(C)C)nc(Nc3cc(C(=O)NC4(C(F)(F)F)CC4)c(Cl)c(F)c3F)c21", "note": "[Example 204, 2-Chloro-5-((6-(3,3-dimethyl-1-((1s,3s)-3-methyl-3-(piperidin-1-yl)cyclobutyl)-2-oxo-2,3-dihydro-1H-pyrrolo[3,2-b]pyridin-6-yl)-3-isopropyl-3H-imidazo[4,5-c]pyridin-4-yl)amino)-3,4-difluoro-N-(1-(trifluoromethyl)cyclopropyl)benzamide]", "IC50": 0.2},
      {"smiles": "CC(C)n1cnc2cc(-c3cnc4c(c3)N([C@H]3C[C@@](C)(N5CC6CCC6C5)C3)C(=O)C4(C)C)nc(Nc3cc(C(=O)NC4(C(F)F)CC4)c(Cl)c(F)c3F)c21", "note": "(stereo partly drawn) [Example 205, 5-((6-(1-((1s,3s)-3-(3-Azabicyclo[3.2.0]heptan-3-yl)-3-methylcyclobutyl)-3,3-dimethyl-2-oxo-2,3-dihydro-1H-pyrrolo[3,2-b]pyridin-6-yl)-3-isopropyl-3H-imidazo[4,5-c]pyridin-4-yl)amino)-2-chloro-N-(1-(difluoromethyl)cyclopropyl)-3,4-difluorobenzamide]", "IC50": 0.1},
      {"smiles": "Cc1cc(F)c(Nc2nc(-c3cnc4c(c3)N([C@H]3C[C@@](C)(N5CCCCC5)C3)C(=O)C43CCOCC3)cc3ncn(C(C)C)c23)cc1C(=O)NC1(C(F)F)CC1", "note": "[Example 206, N-(1-(Difluoromethyl)cyclopropyl)-4-fluoro-5-((3-isopropyl-6-(1′-((1s,3s)-3-methyl-3-(piperidin-1-yl)cyclobutyl)-2′-oxo-1′,2,2′,3,5,6-hexahydrospiro[pyran-4,3′-pyrrolo[3,2-b]pyridin]-6′-yl)-3H-imidazo[4,5-c]pyridin-4-yl)amino)-2-methylbenzamide]", "IC50": 0.07},
      {"smiles": "CC(C)n1cnc2cc(-c3cnc4c(c3)N([C@H]3C[C@@](C)(N5CCCCC5)C3)C(=O)C4(C)C)nc(Nc3cc(C(=O)NC4(C(F)F)CC4)c(Cl)c(F)c3F)c21", "note": "[Example 207, 2-Chloro-N-(1-(difluoromethyl)cyclopropyl)-5-((6-(3,3-dimethyl-1-((1s,3s)-3-methyl-3-(piperidin-1-yl)cyclobutyl)-2-oxo-2,3-dihydro-1H-pyrrolo[3,2-b]pyridin-6-yl)-3-isopropyl-3H-imidazo[4,5-c]pyridin-4-yl)amino)-3,4-difluorobenzamide]", "IC50": 0.08}
    ]}
  ]
}
